From patent US20250057801A1, “Methods for Treating Traumatic Brain Injury” (The Government of the United States, as Represented by the …, priority 2023, published 2025)

What was measured:
[1] = system: penetrating brain injury (PTBI); assay: Mitochondrial bioenergetics (Seahorse XFe96 Flux Analyzer) in injury core mitochondria after PTBI; assay type: in vivo, male Sprague-Dawley rats; details: compared to VEH
Procedure: (§1) Three experimental groups (N=4-8 male Sprague-Dawley rats/group) were studied. The first group was a sham group in which there was no penetrating brain injury and no treatment with resveratrol triacetate (RES). The second group was subject to a penetrating brain injury (via probe insertion and balloon inflation) and treated with dimethyl sulfoxide, DMSO (vehicle, VEH) and dosed at 15 minutes and 6 hours after injury and then once daily. The third group was subject to a penetrating brain injury and treated with RES and dosed at 15 minutes and six hours after injury and then once daily.
(§2) After 60 minutes of the last dosing at either 24 hours or 3 days post-injury, fresh viable mitochondria were isolated from the injury core of rats' brain. Homogenate fractions were collected for a glutathione assay.
(§3) Mitochondrial bioenergetics parameters were measured using a high-throughput procedure of the Seahorse XFe96 Flux Analyzer. The glutathione content was measured using a 5,5′-dithiobis-(2-nitrobenzoic acid) (DTNB) cycling method/assay. Antioxidant and oxidative stress were measured by a Western blot (WB) analysis.
(§4) Graphs and statistical analysis were performed using GraphPad Prism program. Data are presented as mean±SEM (standard error of means). ANOVA with Fisher post-hoc test was used to evaluate significant difference at * p<0.05 vs. Sham; $ p<0.05 vs. Vehicle (N=4-8 animals/group).

[2] = system: penetrating brain injury (PTBI); assay: Total glutathione content (DTNB cycling assay) in brain homogenate after PTBI; assay type: in vivo, male Sprague-Dawley rats; details: 24 hours post-PTBI
Procedure: as §1, §2, §3, §4

[3] = system: penetrating brain injury (PTBI); assay: Western blot of antioxidant, oxidative stress, membrane integrity and apoptosis markers after PTBI; assay type: in vivo, male Sprague-Dawley rats
Procedure: as §1, §2, §3, §4

[4] = cited from earlier work
[5] = in vivo; cited from earlier work

| Structure (SMILES) | bioenergetics in injured core mitochondria, as measured by ATP synthesis ([1]; 24 hours post-PTBI) | bioenergetics in injured core mitochondria ([1]; 3 days post-PTBI) | total glutathione (GSH) content [2] | Cytochrome C (CYT C) expression compared to VEH ([3]; 24 hours post-PTBI) | catalase (CAT) expression compared to VEH ([3]; 24 hours post-PTBI) [%] | glyceraldehyde 3-phosphate dehydrogenase (GAPDH) expression compared to VEH ([3]; 24 hours post-PTBI) [%] | lipid peroxidation marker 4-hydroxynonenal (4-HNE) adduct formation compared to VEH ([3]; 24 hours post-PTBI) | superoxide dismutase (SOD) expression compared to VEH ([3]; 24 hours post-PTBI) | thioredoxin (TRX) expression compared to VEH ([3]; 24 hours post-PTBI) | CAT expression compared to VEH ([3]; 3 days post-PTBI) [%] | CYT C expression compared to VEH ([3]; 3 days post-PTBI) | SOD expression compared to VEH ([3]; 3 days post-PTBI) | anti-apoptotic protein Bcl-2 expression compared to VEH ([3]; 3 days post-PTBI) | voltage-dependent anion channels (VDAC) expression compared to VEH ([3]; 3 days post-PTBI) | water solubility [4] | half-life [5] [min] |
| --- | --- | --- | --- | --- | --- | --- | --- | --- | --- | --- | --- | --- | --- | --- | --- | --- |
| CC(=O)Oc1ccc(/C=C/c2cc(OC(C)=O)cc(OC(C)=O)c2)cc1 [RES, 3′,5′,4′-tri-o-acetyl resveratrol] | trend of improved bioenergetics | non-significant trend of bioenergetics improvement | reversed PTBI-induced downregulation of total glutathione (GSH) content | +105% | −62 | −16.5 | non-significant improvement | +42% | +38% | −30 | +64% | +90% | +104% | +47% |  |  |
| Oc1ccc(C=Cc2cc(O)cc(O)c2)cc1 [Resveratrol] |  |  |  |  |  |  |  |  |  |  |  |  |  |  | low water solubility | 8 to 14 |
